Measured values published in US20250049891A1, “NOVEL PEPTIDE DERIVATIVE DERIVED FROM ADIPONECTIN AND USE THEREOF” (SEOUL NATIONAL UNIVERSITY HOSPITAL, priority 2021, published 2025).
≈ marks a conversion by molar mass, not a printed value. Numbered stars: 1 amine (or outer) side, 2 acyl side, 3 side chain; on linkers, the order of the positions; unused ones are H or OH. Bridge positions count the residues as written; N and C are the ends. Square brackets hold non-standard residues; d marks the D form. Peptide text beside a SMILES is read from it. ξ: configuration not given here. ξhAlg = O=C(C(CCC=[*:3])N[*:1])[*:2]; AllylGly = C=CC[CH](N)C(=O)O

Columns and labels:
AMPK phosphorylation = AMPK phosphorylation activity in mouse adipocytes (Western blot); format: cell-based; conditions: 3T3-L1, 10 μM, 24 hours; for AMPK phosphorylation activity (fold change): APN5 = 1.0
Description: There were confirmed effects of the peptide derivatives of the present disclosure on the expression and receptor activity of adiponectin in mouse adipocytes as a main adiponectin production site. A mouse adipocyte cell line 3T3-L1 was treated with each of the peptide derivatives of the present disclosure at a concentration of 10 μM and cultured for 24 hours, and then cells were obtained. Thereafter, the proteins were extracted and the effect on AMPK phosphorylation, which was responsible for the main downstream signaling of adiponectin, was confirmed by Western blot.

adiponectin receptor 1 = molecular target: T1, adiponectin receptor 1 (Mus musculus, UniProt Q91VH1); experiment: AMPK phosphorylation activity after knockdown of adiponectin receptor 1 (siRNA, Western blot); format: cell-based; conditions: 3T3-L1, adiponectin receptor 1 siRNA, 10 μM, 24 hours
T1 construct: a mouse adipocyte cell line 3T3-L1 was treated with siRNA of an adiponectin receptor 1 to be knocked down; endogenous in cells; host or cells: 3T3-L1 mouse adipocyte cell line
T1 sequence (Q91VH1 1-375): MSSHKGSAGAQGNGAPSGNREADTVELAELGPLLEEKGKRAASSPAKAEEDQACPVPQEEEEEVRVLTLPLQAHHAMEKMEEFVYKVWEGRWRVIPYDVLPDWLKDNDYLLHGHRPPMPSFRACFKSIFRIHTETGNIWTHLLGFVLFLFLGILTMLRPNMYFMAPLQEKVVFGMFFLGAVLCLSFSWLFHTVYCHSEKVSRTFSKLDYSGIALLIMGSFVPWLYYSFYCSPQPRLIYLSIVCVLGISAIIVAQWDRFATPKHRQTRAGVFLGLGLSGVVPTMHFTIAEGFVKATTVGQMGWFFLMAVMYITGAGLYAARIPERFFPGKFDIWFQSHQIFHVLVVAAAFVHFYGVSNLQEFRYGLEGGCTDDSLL
Description: In order to verify whether the peptide derivative of the present disclosure bound to an adiponectin receptor 1, a mouse adipocyte cell line 3T3-L1 was treated with siRNA of an adiponectin receptor 1 to be knocked down, and each of the peptide derivatives of the present disclosure was treated at 10 μM and cultured for 24 hours, and then cells were obtained. Thereafter, the proteins were extracted and it was confirmed by Western blot whether AMPK phosphorylation activity, which had been increased by the peptide derivatives, was lost.

physchem = conditions: pH 7.4, aqueous buffer, kinetic from dmso stock
Description: A PRISMA HT solution was diluted in distilled water at a ratio of 1:40, and then used as a test buffer by adjusting the pH to 7.4.
10 mL of the prepared test material was diluted in 190 μL of isopropyl alcohol and prepared. In addition, 75 mL of the test solution and 70 mL of isopropyl alcohol were mixed to be used as a blank sample, and 5 mL of the test material diluted in isopropyl alcohol was added to the blank sample. After the diluted sample was mixed, the absorbance was measured and used as an initial test value. […] Thereafter, the precipitate was removed from the sample using a filter plate, 74 mL of the filtered sample was added with 75 mL of isopropyl alcohol, and then the absorbance was measured and used as the sample value.
The solubility value of the test material was analyzed using a msol Explore (Solubility explorer program) after measuring the absorbance of each sample through a microplate reader. The average and standard deviation of the experimental values (n=3) repeated three times were calculated using the Excel program.

[1] = Metabolic stability test, rat liver microsomes; format: in vitro ADME; conditions: pH 7.4, rat liver microsomes 0.5 mg/ml, NADPH, 37° C., 30 m
Description: (§2) Three types of liver microsomes (Human, Rat, Mouse, 0.5 mg/ml), a 0.1 M phosphate buffer solution (pH 7.4), and the peptide derivative of the present disclosure were added at a concentration of 1 μM and pre-cultured at 37° C. for 5 minutes, and then added with an NADPH Regeneration system solution and cultured at 37° C. for 30 minutes. Thereafter, to terminate the reaction, the mixture was added with an acetonitrile solution containing an internal standard material (chlorpropamide), centrifuged for 5 minutes (14,000 rpm, 4° C.), and then the supernatant was injected into the LC-MS/MS system to analyze a substrate drug, and thus metabolic stability was evaluated.
(§3) The amount of substrate remaining through the reaction was analyzed by LC-MS/MS using Agilent 1290 infinity series pump system (Agilent, USA) and Triple Quad 5500 LC-MS/MS system (Applied Biosystems, USA). The HPLC column was used with a Kinetex C18 column (2.1×100 mm, 1.7 μm particle size; Phenomenex, USA), and the mobile phase was distilled water (A) containing 0.1% formic acid and acetonitrile (B) containing 0.1% formic acid. TurboSpray Ionization was used as an ion source for MS/MS, and a triple quadruple type was used as a mass spectrometer. The produced metabolites were quantified using a multiple reaction monitoring (MRM) quantitative mode, and data analysis was performed using Analyst software (version 1.6.1).

[2] = Metabolic stability test, mouse liver microsomes; format: in vitro ADME; conditions: pH 7.4, mouse liver microsomes 0.5 mg/ml, NADPH, 37° C., 30 m
Description: as §2, §3

CYP1A2 = molecular target: T2, CYP1A2 (Homo sapiens, UniProt P05177); conditions: microsomes, 10 µM
T2 sequence (P05177 1-516): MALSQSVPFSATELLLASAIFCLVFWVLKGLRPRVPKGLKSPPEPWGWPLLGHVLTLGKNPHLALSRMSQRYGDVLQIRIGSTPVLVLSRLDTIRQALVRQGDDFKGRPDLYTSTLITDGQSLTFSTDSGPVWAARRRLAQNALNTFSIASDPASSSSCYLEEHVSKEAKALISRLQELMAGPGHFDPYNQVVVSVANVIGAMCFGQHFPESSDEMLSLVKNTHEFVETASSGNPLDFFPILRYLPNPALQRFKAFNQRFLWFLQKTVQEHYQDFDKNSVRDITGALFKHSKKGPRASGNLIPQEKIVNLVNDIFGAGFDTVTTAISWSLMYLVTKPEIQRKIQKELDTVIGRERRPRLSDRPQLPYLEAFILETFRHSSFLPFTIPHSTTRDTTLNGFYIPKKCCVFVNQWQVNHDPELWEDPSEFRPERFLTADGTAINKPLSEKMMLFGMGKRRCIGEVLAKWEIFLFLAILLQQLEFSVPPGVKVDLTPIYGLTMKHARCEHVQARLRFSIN
Description: (§1) Metabolites of each CYP isoenzyme indicator drug produced through the reaction were analyzed by LC-MS/MS using the Shimadzu Nexera XR system and TSQ vantage (Thermo).

CYP2C19 = CYP2C19 (Homo sapiens, UniProt P33261); conditions: microsomes, 10 µM
Sequence of CYP2C19 (P33261 whole entry): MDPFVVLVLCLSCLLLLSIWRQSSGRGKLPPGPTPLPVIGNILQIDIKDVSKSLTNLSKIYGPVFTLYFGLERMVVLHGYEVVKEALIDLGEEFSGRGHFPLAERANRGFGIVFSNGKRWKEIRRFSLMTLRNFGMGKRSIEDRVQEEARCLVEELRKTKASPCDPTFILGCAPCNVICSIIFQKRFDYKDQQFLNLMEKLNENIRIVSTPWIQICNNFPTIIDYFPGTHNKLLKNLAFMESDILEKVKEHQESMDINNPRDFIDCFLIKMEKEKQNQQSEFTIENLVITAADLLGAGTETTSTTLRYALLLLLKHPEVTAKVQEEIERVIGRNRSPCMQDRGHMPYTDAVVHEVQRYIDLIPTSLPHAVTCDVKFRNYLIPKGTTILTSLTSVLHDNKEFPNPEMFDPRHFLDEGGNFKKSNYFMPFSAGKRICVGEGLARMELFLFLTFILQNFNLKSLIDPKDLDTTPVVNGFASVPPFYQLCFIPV
Description: as §1

CYP2C9 = CYP2C9 (Homo sapiens, UniProt P11712); conditions: microsomes, 10 µM
Sequence of CYP2C9 (P11712 whole entry): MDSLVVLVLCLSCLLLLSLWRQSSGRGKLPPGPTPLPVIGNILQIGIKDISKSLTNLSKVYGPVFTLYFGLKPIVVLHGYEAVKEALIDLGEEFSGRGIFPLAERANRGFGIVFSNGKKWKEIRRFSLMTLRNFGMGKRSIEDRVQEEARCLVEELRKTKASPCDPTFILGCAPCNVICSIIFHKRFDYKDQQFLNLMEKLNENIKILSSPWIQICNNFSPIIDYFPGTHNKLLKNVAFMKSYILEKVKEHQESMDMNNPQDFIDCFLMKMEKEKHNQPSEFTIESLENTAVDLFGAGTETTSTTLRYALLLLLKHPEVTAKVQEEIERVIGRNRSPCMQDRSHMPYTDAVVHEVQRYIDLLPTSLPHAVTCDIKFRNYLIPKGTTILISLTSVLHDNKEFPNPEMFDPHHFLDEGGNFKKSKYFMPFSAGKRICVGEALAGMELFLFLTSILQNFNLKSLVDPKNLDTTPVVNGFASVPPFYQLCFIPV
Description: as §1

CYP2D6 = CYP2D6 (Homo sapiens, UniProt P10635); conditions: microsomes, 10 µM
Sequence of CYP2D6 (P10635 whole entry): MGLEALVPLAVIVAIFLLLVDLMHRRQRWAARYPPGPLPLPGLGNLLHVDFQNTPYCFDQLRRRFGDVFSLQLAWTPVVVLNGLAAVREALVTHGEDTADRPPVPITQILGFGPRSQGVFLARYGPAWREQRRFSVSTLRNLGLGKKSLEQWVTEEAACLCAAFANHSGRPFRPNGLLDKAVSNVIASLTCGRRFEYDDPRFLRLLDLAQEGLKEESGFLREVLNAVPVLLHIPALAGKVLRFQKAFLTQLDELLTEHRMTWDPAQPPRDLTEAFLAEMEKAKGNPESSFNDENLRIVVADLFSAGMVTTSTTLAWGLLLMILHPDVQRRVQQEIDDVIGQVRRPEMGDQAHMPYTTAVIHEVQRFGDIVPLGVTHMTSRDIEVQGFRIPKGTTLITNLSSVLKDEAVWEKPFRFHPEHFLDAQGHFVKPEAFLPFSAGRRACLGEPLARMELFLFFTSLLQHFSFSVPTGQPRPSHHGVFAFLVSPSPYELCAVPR
Description: as §1

CYP3A4 = CYP3A4 (Homo sapiens, UniProt P08684); conditions: microsomes, 10 µM
Sequence of CYP3A4 (P08684 whole entry): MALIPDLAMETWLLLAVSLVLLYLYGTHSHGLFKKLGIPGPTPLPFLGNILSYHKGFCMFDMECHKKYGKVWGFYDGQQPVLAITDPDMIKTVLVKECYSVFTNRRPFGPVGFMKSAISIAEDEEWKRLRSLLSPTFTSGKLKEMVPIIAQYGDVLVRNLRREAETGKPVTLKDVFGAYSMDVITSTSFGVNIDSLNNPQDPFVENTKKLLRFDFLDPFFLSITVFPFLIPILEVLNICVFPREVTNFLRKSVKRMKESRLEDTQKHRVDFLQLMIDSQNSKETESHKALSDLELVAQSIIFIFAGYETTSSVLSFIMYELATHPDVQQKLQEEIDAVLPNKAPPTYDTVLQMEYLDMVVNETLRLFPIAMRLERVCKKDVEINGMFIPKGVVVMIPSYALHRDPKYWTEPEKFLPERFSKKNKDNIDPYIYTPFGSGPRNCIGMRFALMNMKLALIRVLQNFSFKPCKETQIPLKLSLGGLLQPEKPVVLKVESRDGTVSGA
Description: as §1

in vitro [3] = conditions: human, plasma
Description: (§4) The peptide derivative of the present disclosure was added at a concentration of 1 μM to two types of plasma (human, rat), placed in each tube, and then cultured at 37° C. for time of 0, 30, 60, 120, and 240 minutes. The tube containing plasma was taken out every time, added with an acetonitrile solution containing an internal standard material (chlorpropamide), vortexed for 5 minutes, and centrifuged for 5 minutes (14,000 rpm, 4° C.). Thereafter, the plasma stability of the peptide derivative was evaluated by injecting the supernatant into an LC-MS/MS system and analyzing the drug at each time period. At this time, Procaine and Enalapril were used as reference materials for accuracy during a general plasma stability test.
(§5) After the reaction, the amount of drug remaining in each tube was analyzed by LC-MS/MS using Shimadzu Nexera XR system and TSQ vantage (Thermo). The HPLC column was used with a Luna C18 column (2.0×50 mm, 3 μm particle size; Phenomenex, US), and the mobile phase was distilled water (A) containing 0.1% formic acid and acetonitrile (B) containing 0.1% formic acid. Data analysis was performed using Xcalibur (version 1.6.1). In the result analysis, the plasma stability of each peptide derivative was expressed as % remaining for each time period for the sample without culture.

in vitro [4] = conditions: rat, plasma
Description: as §4, §5

in vitro [5] = conditions: human, microsomes, pH 7.4
Description: as §2
The HPLC column was used with a Kinetex C18 column (2.1×100 mm, 1.7 μm particle size; Phenomenex, USA), and the mobile phase was distilled water (A) containing 0.1% formic acid and acetonitrile (B) containing 0.1% formic acid. TurboSpray Ionization was used as an ion source for MS/MS, and a triple quadruple type was used as a mass spectrometer. The produced metabolites were quantified using a multiple reaction monitoring (MRM) quantitative mode, and data analysis was performed using Analyst software (version 1.6.1).

[6] = Plasma stability test, rat plasma; conditions: rat plasma, 1 μM, 37° C.
Description: as §4, §5

[7] = Plasma stability test, human plasma; conditions: human plasma, 37° C.
Description: as §4, §5

remaining at 0.5 h, 1 μM [1] | remaining at 0.5 h, 1 μM [2] | CYP inhibition (% of control activity) CYP1A2 (CYP1A2) | CYP inhibition (% of control activity) CYP2C19 (CYP2C19) | CYP inhibition (% of control activity) CYP2C9 (CYP2C9) | CYP inhibition (% of control activity) CYP2D6 (CYP2D6) | CYP inhibition (% of control activity) CYP3A4 (CYP3A4) | remaining at 0.5 h, 1 μM (in vitro [3]) | remaining at 2 h, 1 μM (in vitro [3]) | remaining at 0.5 h, 1 μM (in vitro [4]) | remaining at 2 h, 1 μM (in vitro [4]) | remaining at 0.5 h, 1 μM (in vitro [5]) | Molecule | AMPK phosphorylation activity (fold change) (AMPK phosphorylation) | other results
– | – | – | – | – | – | – | – | – | – | – | – | NCC(=O)NC(CC(N)=O)C(=O)NC(Cc1ccc(O)cc1)C(=O)NC(Cc1ccc(O)cc1)C(=O)NC(Cc1ccccc1)C(=O)O (stereo not drawn) [DS-9, NH2-GNYYF-OH] (H-GNYYF-OH; configuration not given here) | 1.6 fold change | –
– | – | – | – | – | – | – | – | – | – | – | – | CC(C)CC(NC(=O)CN)C(=O)NC(Cc1c[nH]c2ccccc12)C(=O)NC(Cc1ccc(O)cc1)C(=O)NC(Cc1ccccc1)C(N)=O (stereo not drawn) [DS-17, NH2-GLWYF-NH2] (H-GLWYF-NH2; configuration not given here) | 1.2 fold change | AMPK phosphorylation activity compared to APN5 (in words) (AMPK phosphorylation): significant effect of increasing AMPK phosphorylation activity; AMPK phosphorylation activity after knockdown of the adiponectin receptor 1 (adiponectin receptor 1): decreased the AMPK phosphorylation activity after knockdown of the adiponectin receptor 1
– | – | – | – | – | – | – | – | – | – | – | – | CCC(C)C(NC(=O)CN)C(=O)NC(Cc1c[nH]c2ccccc12)C(=O)NC(Cc1ccc(O)cc1)C(=O)NC(Cc1ccccc1)C(N)=O (stereo not drawn) [DS-18, NH2-GIWYF-NH2] (H-GIWYF-NH2; configuration not given here) | 1.2 fold change | AMPK phosphorylation activity compared to APN5 (in words) (AMPK phosphorylation): significant effect of increasing AMPK phosphorylation activity; AMPK phosphorylation activity after knockdown of the adiponectin receptor 1 (adiponectin receptor 1): decreased the AMPK phosphorylation activity after knockdown of the adiponectin receptor 1
– | – | – | – | – | – | – | – | – | – | – | – | NC(CC(=O)O)C(=O)NC(Cc1ccc(O)cc1)C(=O)NC(Cc1ccc(O)cc1)C(=O)NC(Cc1ccccc1)C(=O)O (stereo not drawn) [DS-27, NH2-DYYF-OH] (H-DYYF-OH; configuration not given here) | 1.3 fold change | solubility at 24 h (physchem): 300 µg/mL (≈ 495 µM)
– | – | – | – | – | – | – | – | – | – | – | – | NC(=O)C(Cc1ccccc1)NC(=O)C(Cc1ccc(O)cc1)NC(=O)C(Cc1ccc(O)cc1)NC(=O)C(N)CC(=O)O (stereo not drawn) [DS-29, NH2-DYYF-NH2] (H-DYYF-NH2; configuration not given here) | 1.2 fold change | solubility at 24 h (physchem): 300 µg/mL (≈ 495 µM)
95.8% | 99.2% | 77.7 % of control activity | 4.1 % of control activity | 93.6 % of control activity | 97.4 % of control activity | >100 % of control activity | 2.9% | < 1% | 99.4% | 89.4% | > 100% | NCCCCC(NC(=O)C(Cc1ccc(O)cc1)NC(=O)C(Cc1ccc(O)cc1)NC(=O)C(CC(=O)O)NC(=O)CN)C(N)=O (stereo not drawn) [DS-35, NH2-GDYYK-NH2] (H-GDYYK-NH2; configuration not given here) | – | –
41.1% | 10.6% | 80.5 % of control activity | 73.5 % of control activity | 100.0 % of control activity | 91.6 % of control activity | 9.2 % of control activity | 2.8% | < 1% | 70.9% | 29.4% | 53.9% | CC(C)CC(NC(=O)CN)C(=O)N(C)C(Cc1ccc(O)cc1)C(=O)NC(Cc1ccc(O)cc1)C(=O)NC(Cc1ccccc1)C(N)=O (stereo not drawn) [DS-56, NH2-GLY(N-Me)YF-NH2] | – | –
65.7% | 78% | 82.7 % of control activity | 85.1 % of control activity | 96.5 % of control activity | 85.9 % of control activity | 80.5 % of control activity | 94.7% | 75.2% | > 100% | 89.3% | 71.6% | CC(C)CC1NC(=O)C(N)CC/C=C\CC(C(N)=O)NC(=O)C(Cc2ccc(O)cc2)NC(=O)C(Cc2ccc(O)cc2)NC1=O (stereo not drawn) [DS-73] (H-[ξhAlg]LYY[AllylGly]-NH2; staple (Z) 1-5; configuration not given here) | – | solubility at 24 h (physchem): 315 µg/mL (≈ 495 µM)
– | – | – | – | – | – | – | – | – | – | – | – | CCOC(=O)[C@H](CCc1ccccc1)N[C@@H](C)C(=O)N1CCC[C@H]1C(=O)O [Enalapril] | – | Plasma stability (% remaining) Rat, 30 m [6]: 27.9 % remaining; Plasma stability (% remaining) Rat, 120 m [6]: <1 % remaining; Plasma stability (% remaining) Human, 30 m ([7]; 1 μM, 30 m): >100 % remaining; Plasma stability (% remaining) Human, 120 m ([7]; 1 μM, 120 m): 197.4 % remaining
– | – | 97.2 % of control activity | >100 % of control activity | >100 % of control activity | – | – | – | – | – | – | – | CC(=O)N1CCN(c2ccc(OCC3COC(Cn4ccnc4)(c4ccc(Cl)cc4Cl)O3)cc2)CC1 (stereo not drawn) [Ketoconazole, reference compound] | – | –
– | – | – | – | – | – | – | – | – | – | – | – | CCN(CC)CCOC(=O)c1ccc(N)cc1 [Procaine] | – | Plasma stability (% remaining) Rat, 30 m [6]: 90.3 % remaining; Plasma stability (% remaining) Rat, 120 m [6]: 57.4 % remaining; Plasma stability (% remaining) Human, 30 m column, marked (5 min) ([7]; cell marked (5 min)): 2.8 % remaining; Plasma stability (% remaining) Human, 120 m column, marked (5 min) ([7]; cell marked (5 min)): <1 % remaining
78.2% | 83.6% | 95.1 % of control activity | 100 % of control activity | >100 % of control activity | >100 % of control activity | >100 % of control activity | 39.8% | 3.3% | > 100% | 96% | 93.9% | Ac-GDYYF-NH2 [DS-8, AcNH-GDYYF-NH2] | – | –
66.4% | 95.9% | 83.2 % of control activity | 80.9 % of control activity | 97.3 % of control activity | 85.5 % of control activity | 90.9 % of control activity | 1.4% | < 1% | > 100% | 94.1% | 62.5% | H-GDYYF-OH [DS-5, NH2-GDYYF-OH] | – | solubility kinetic at 24 h (physchem): 328 µg/mL
